{"source": "patent US11261152B2", "about": "“Inhibitors of the N-terminal domain of the androgen receptor” (The Regents of the University of California, priority 2017, dated 2022)", "key": {"[1]": {"tested_on": "androgen response element (ARE)", "assay": "ARE reporter assay (tandem copies of the androgen response element)", "assay_type": "cell-based", "method": "FIG. 11A. Effects of JN series compounds in reporter assays for androgen response element. Experiments were performed in triplicate and results are means+/−s.d."}, "[2]": {"tested_on": "glucocorticoid response element (GRE) / glucocorticoid receptor", "assay": "GRE reporter assay", "assay_type": "cell-based", "method": "FIG. 11B. Effects of JN series compounds in reporter assays for glucocorticoid response element. Experiments were performed in triplicate and results are means+/−s.d."}, "c-Jun TAD": {"tested_on": "c-Jun TAD", "assay": "JUN-TAD fused to GAL4 DNA-binding domain reporter assay", "assay_type": "cell-based", "details": "Table 3 grade HIGH/MED/LOW, grades not defined", "text": "The inhibitory activity of JN018 was further evaluated in experiments in which the AR transactivation domain (TAD) or the c-Jun or CREB TAD was fused to the heterologous GAL4 DNA-binding domain and thereby drive reporter gene expression governed by the GAL4 response element (FIG. 1)."}, "[3]": {"tested_on": "prostate cancer cell lines", "assay": "Growth inhibition of prostate cancer cell lines (IC50)", "assay_type": "cell-based"}, "[4]": {"tested_on": "LNCaP-AR castration resistant cell line", "assay": "LNCaP-AR castration resistant xenograft in castrated nude mice", "assay_type": "in vivo", "method": "FIG. 12A. In vivo effects of JN series compounds.\nFIG. 12B. In vivo effects of JN series compounds.\nSelected compounds were tested in a mouse xenograft model. In this model, the LNCaP-AR castration resistant cell line was grown subcutaneously in the flanks of castrated nude mice. When tumors reached 150-200 mm^3, mice were administered selected JN series compounds, vehicle or positive control by oral gavage once per day for five days per week (Mon-Fri). […]."}, "[5]": {"tested_on": "AR-null PCa cells (DU145, PC3)", "assay": "MTT / CellTiter GLO cell viability, AR-null prostate cancer cells", "experimental": "(§1) The results are means of quadruplicate expts±s.d. Top panel: CellTiter GLO luminescent bioassay (arbitrary units on vertical axis). Bottom panel: classical MTT assay ([blue/yellow]=[viable/non-viable]).\n(§2) Experiments were performed in quadruplicate; results are means+/−s.d.\nAR null PC3 cells were exposed to the indicated compounds for 6 days; cell viability was measured by MTT assay. Results were normalized to that of vehicle control. Experiments were performed in quadruplicate; results are means+/−s.d.\nFor each compound and concentration in the figure, the bars represent relative cell viability of 22Rv1, LAPC4, and DU145, from left to right.\nFor each compound and concentration in the figure, the bars represent relative cell viability of CWR22 and PC3, from left to right."}, "[6]": {"tested_on": "AR positive PCa cells (LNCaP, LNCaP-AR, CWR22, 22Rv1, LAPC4)", "assay": "MTT / CellTiter GLO cell viability, AR positive prostate cancer cells", "experimental": "as §1, §2\nResults were normalized to that of vehicle control. Experiments were performed in quadruplicate; results are means+/−s.d.\nNext, the effects of the compounds on growth of prostate cancer cell lines in vitro were evaluated."}, "AR": {"target": "AR (Homo sapiens, UniProt P10275)", "sequence (P10275 whole entry, canonical isoform)": "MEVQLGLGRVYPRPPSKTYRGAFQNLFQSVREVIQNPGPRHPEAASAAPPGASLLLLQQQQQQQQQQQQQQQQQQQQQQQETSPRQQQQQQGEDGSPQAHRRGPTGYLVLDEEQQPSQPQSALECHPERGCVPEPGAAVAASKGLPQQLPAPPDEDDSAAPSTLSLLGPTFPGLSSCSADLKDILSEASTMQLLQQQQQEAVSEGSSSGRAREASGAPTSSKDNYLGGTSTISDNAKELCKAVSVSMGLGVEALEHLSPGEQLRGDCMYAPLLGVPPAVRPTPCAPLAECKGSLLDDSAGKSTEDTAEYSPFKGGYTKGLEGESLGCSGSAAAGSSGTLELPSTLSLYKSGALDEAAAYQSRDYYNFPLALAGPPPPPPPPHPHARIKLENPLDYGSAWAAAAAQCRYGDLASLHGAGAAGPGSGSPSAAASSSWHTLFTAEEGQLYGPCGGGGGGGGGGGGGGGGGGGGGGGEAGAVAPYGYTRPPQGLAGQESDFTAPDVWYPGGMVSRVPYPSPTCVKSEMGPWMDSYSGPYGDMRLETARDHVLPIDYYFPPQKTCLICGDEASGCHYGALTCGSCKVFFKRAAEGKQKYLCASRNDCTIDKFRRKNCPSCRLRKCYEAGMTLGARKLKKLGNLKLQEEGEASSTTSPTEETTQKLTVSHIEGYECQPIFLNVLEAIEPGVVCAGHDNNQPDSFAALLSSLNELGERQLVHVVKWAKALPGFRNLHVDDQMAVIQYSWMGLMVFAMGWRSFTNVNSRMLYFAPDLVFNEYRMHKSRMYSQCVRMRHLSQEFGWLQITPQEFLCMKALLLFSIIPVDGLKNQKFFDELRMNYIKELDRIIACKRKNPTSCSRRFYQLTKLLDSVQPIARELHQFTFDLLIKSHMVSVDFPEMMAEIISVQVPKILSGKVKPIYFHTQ", "assay": "AR inhibition (reporter activity of full-length AR and AR splice variants)"}, "[7]": {"details": "Table 3 grade HIGH/MED/LOW, grades not defined"}}, "note": "“Also recorded” adds a separate entry of the source. Where a name gives a salt, the structure may show the parent alone."}
{"smiles": "C=C(CN(C)Cc1ccccc1)C(=O)/C(=C/c1ccc(Cl)cc1)c1ccccc1", "note": "[JN018, (E)-4-((Benzyl(methyl)amino)methyl)-1-(4-chlorophenyl)-2-phenylpenta-1,4-dien-3-one hydrochloride]", "values": [{"measurement": "ARE", "setting": "[1]; [7]", "result": "HIGH"}, {"measurement": "reporter activity driven by the ARE", "setting": "[1]; result in words", "result": "inhibits reporter activity"}, {"measurement": "GRE", "setting": "[2]; [7]", "result": "LOW"}, {"measurement": "GR / GRE mediated reporter (transcriptional) activity", "setting": "[2]; result in words, hydrochloride", "result": "does not inhibit; also recorded: does not affect"}, {"measurement": "JUN-TAD", "setting": "c-Jun TAD", "result": "LOW"}, {"measurement": "IC50", "setting": "[3]", "result": 1500, "unit": "nM"}, {"measurement": "tumor growth of LNCaP-AR model in castrated nude mice", "setting": "[4]; oral gavage once per day, five days per week (Mon-Fri), hydrochloride", "result": "inhibits growth"}, {"measurement": "signs of toxicity in mice", "setting": "[4]; xenograft study, oral gavage Mon-Fri", "result": "some mice exhibited signs of toxicity"}, {"measurement": "MTT AR-Neg", "setting": "[5]; [7]", "result": "LOW"}, {"measurement": "growth of AR null prostate cancer cells", "setting": "[5]; result in words", "result": "had no effect"}, {"measurement": "MTT AR-Pos", "setting": "[6]; [7]", "result": "HIGH"}, {"measurement": "growth of AR expressing prostate cancer cells", "setting": "[6]; result in words", "result": "inhibits the growth"}, {"measurement": "reporter activity of endogenously and ectopically expressed full-length AR and AR-V7", "setting": "AR; LNCaP, LNCaP-AR, 22Rv1, PC3 transfected with ARΔ567", "result": "inhibits the reporter activity"}, {"measurement": "IC50", "setting": "AR; read-out: IC50 for AR inhibition", "result": 110, "unit": "nM"}]}
